Patent US9315492B2, “Heterocyclic group contained amino-methanol derivative, and salt, synthetic method and use thereof” (BEIJING FORELAND BIOPHARMA CO., LTD., priority 2012, dated 2016)

What was measured:
S1P1 [1] = target: T1, S1P1 (Homo sapiens (Human), UniProt P21453); assay: S1P1 GTPγS binding assay; format: biochemical; conditions: [35S]-GTPγS, membranes with high-expressed S1P1 (CHO-S1P1)
Procedure: 1. S1P1GTPγS Binding Assay
2) T-75 cell culture plate; 150 mm cell culture dish
3) DMEM cell culture fluid; 10% (v/v) fetal bovine serum; 100 U/ml penicillin-100 μg/ml streptomycin; 2 mM […], 1 mg/ml G-418
4) Cell Lysis Buffer: HEPES 20 mM (pH 7.4), EDTA 10 mM
5) Stock solution: HEPES 20 mM, EDTA 0.1 mM
6) Binding Buffer; HEPES 20 mM (pH 7.4), NaCl 100 mM, MgCl2 5 mM, GDP 1 μM, BSA 0.1% (w/v), DMSO 2.5% (v/v),
7) Washing solution: NaH2PO4 10 mM (pH 7.4)
The test compounds were dissolved in DMSO and prepared as a concentration of 20 mM.
The concentrations of the compounds were detected ranging from 0.3 nM to 20 μM.
Control group: […] SIP and SEW2871 were used as positive control and were purchased from Tocris company, and the binding buffet was as negative control.
Test method: wetting membranes by saponin solution, and preparing [^35S]-GTPγS in binding solution (4×). The test compound was prepared as 4× of the final concentration which was then performed serial 3× dilution in 100% DMSO. Membranes with high-expressed S1P1 were collected in 5 ml binding buffer, and 50 μL was added to 96-well (containing 5 μg membrane protein with high-expressed S1P1). 25 μL, test compound was added in each well. The compound was incubated with the membranes for 30 min at room temperature, then 25 μL [^35S]-GTPγS was added, and the experiment was initiated. The 96-well detection plate was incubated for 1 hour at room temperature, filtered by filtermat B, and washed with washing solution for three times. After the plate was dried for 1 h at 50° C., 8 ml scintillator solution was added and counted using scintillation counter.
Result Analysis and Determination of 50% Inhibitory Concentration (IC50):
The IC50 value was calculated by using (Prism 4) software, and 50% inhibitory concentrations were obtained.

S1P1 [2] = target: T1, S1P1; assay: S1P1 β-arrestin assay (PathHunter CHO-K1 EDG1); format: cell-based; conditions: CHO-EDG-1 cells
Procedure: 2.1 Experimental Materials: Path hunter express CHO-K1 EDG1 β-arrestin GPCR Assay was purchased from DiscoveRx, containing CHO-EDG-1 cells, buffers, substrate-1, substrate-2, cell culture fluid, 96-well cell culture plate.
1) The test compounds were dissolved in DMSO and prepared as a concentration of 20 mM.
2) The concentrations of the test compounds were detected ranging from […] to 20 μM.
4) Assay procedures: OCC culture solution was preheated in water tank at 37° C. Cells were taken out from liquor nitrogen tank, left on the dry-ice, and dissolved in water tank at 37° C. 0.5 ml OCC culture solution was added and blended slowly. The cells were diluted in 11.5 mL OCC culture solution, and 100 μL cell suspension (containing 8333 cells) was added to each well of the 96-well plate. The 96-well plate was incubated for 8 hours under 5% CO2 at 37° C., and 10 μL test compound dissolved in DMSO was added in; 10 μL DMSO was used as negative control. After the plate was incubated for 90 min at 37° C., 55 μL detection solution was added to each well. Then the results were read out by EnVision after the cell plate was incubated for 90 min at room temperature.
The EC50 Value was Calculated by Using Prism 4 Software

[3] = test system: peripheral blood lymphocyte; assay: Effects on peripheral blood lymphocyte in mice; format: in vivo, Balb/c mice; conditions: intragastric
Procedure: 3. Effects of the Compounds in Example-21 and Example-22 on Peripheral Blood Lymphocyte in Mice
3.1 Experimental Materials:
1) 15% EDTA, PBS, EP tubes, 15 ml centrifuge tube, capillary tube, pipette tip were all purchased from Shanghai biological technology co., Ltd. Hemocyte analysis reagents were purchased from Shanghai Sysmex Company.
2) 35 Balb/c mice (female, 20-22 g), supplied by laboratory animal center of Jilin University.
3) Automated Hematology Analyzer (pocH-100 iV Diff) was purchased from Sysmex Company, Kobe, Japan.
1) The stock solutions of the compounds obtained in Example-21 and Example-22 were prepared with normal saline, and the concentrations are 2 mg/ml and 20 mg/ml, respectively.
2) The mice were divided into […], i.e., control group, low-dose experimental group, and high-dose experimental group. They were weighed and labeled well.
3) Before administration, supraorbital venous blood was collected with 20 μl/mouse which was added to anticoagulant tube containing EDTA, and nosed thoroughly. The numbers of lymphocytes were analyzed by pocH-100.
4) The control group was given normal saline: low-dose experimental groups were given the compounds obtained in Example-21 and Example-22 (5 mg/kg/d), high-dose experimental groups were given the compounds obtained in Example-21 and Example-22 (30 mg/kg/d), with liquid amount of 500 μl/mouse, by intragastric administration. Administration was performed for continuous four days, once a day. After 3.5 hours of the first and fourth administration, blood was collected respectively, and changes in the numbers of lymphocytes were analyzed by pocH-100.

[4] = test system: experimental rheumatoid arthritis (bovine collagen type II immunized mice); assay: Experimental rheumatoid arthritis; format: in vivo; conditions: DBA/1JLacJ mice, 5 and 30 mg/kg/d intragastric, 30 days
[5] = test system: autoimmune multiple sclerosis (PLP139-151 immunized mice); assay: Experimental autoimmune multiple sclerosis; format: in vivo; conditions: SJL/J mice, 5 and 30 mg/kg/d intragastric, 30 days
[6] = test system: peripheral blood lymphocyte; conditions: general statement for FTY720; cited from earlier work

T1 sequence (P21453 whole entry): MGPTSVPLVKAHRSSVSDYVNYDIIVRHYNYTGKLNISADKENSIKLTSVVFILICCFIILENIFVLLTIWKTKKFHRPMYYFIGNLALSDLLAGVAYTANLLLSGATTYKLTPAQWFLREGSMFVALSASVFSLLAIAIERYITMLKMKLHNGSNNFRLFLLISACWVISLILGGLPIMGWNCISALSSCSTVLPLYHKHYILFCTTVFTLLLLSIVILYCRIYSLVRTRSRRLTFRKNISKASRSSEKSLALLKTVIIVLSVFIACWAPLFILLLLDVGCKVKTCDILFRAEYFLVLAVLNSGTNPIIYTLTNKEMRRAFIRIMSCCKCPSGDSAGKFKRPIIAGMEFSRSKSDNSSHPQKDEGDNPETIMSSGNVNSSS

Compound	IC50 (S1P1 [1]) [nM]	EC50 (S1P1 [2]) [nM]	toxicity ([3]; dose up to 30 mg/kg/d, four days)	behavior and weight of mice, pre- versus post-administration ([3]; four days)	numbers of peripheral blood lymphocyte reduced compared to pre-administration ([3]; once a day for continuous four days) [%]	effect on induction and development of experimental rheumatoid arthritis [4]	effect on induction and development of experimental rheumatoid arthritis ([4]; listed as Example-22)	effect on induction and development of autoimmune multiple sclerosis [5]	effect on induction and development of autoimmune multiple sclerosis ([5]; listed as Example-22)	number of peripheral blood lymphocytes decreased [6]
2-(7-amino-5,6,7,8-tetrahydro-7-naphthalenemethanol)-5-(3-methyl-4-isopropoxy)-1,3,4-oxdiazole [Example 22]	3	8	no toxicity effects	no differences	78	obviously inhibiting	remarkable inhibitory effects	obviously inhibiting	remarkable inhibitory effects	
CCCCCCCCc1ccc(CCC(N)(CO)CO)cc1 [FTY720]										70-80%
